Test results from US9309248B2, “Azaindolines” (Hoffmann-La Roche Inc., priority 2012, dated 2016).

Key:
BIR2 domain of XIAP = biological target: T1, BIR2 domain of XIAP (Homo sapiens, UniProt P98170, C202A/C213G); assay: TR-FRET assay for BIR2 (inhibition of binding of XIAP BIR2 domain to SMAC-derived Peptide A); settings: 6x Histidine-tagged BIR2 domain (amino acids 124-240 of XIAP) 10 nM, Peptide A 20 nM
T1 construct: 6× Histidine-tagged BIR2 domain, corresponding to amino acids 124-240 of XIAP
T1 sequence (P98170 with tags, fused parts or gaps C202A/C213G): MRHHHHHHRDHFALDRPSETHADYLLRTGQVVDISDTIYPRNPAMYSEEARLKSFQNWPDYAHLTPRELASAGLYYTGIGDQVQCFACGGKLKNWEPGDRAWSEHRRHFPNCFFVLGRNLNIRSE
Experimental: (§1) TR-FRET Assay for BIR2 and BIR3
(§2) The ability of a test compound to inhibit the binding of BIR2 and/or BIR3 domains of the XIAP protein to Peptide A (a SMAC-derived peptide described below) evidences that the test compound acts as a SMAC-mimetic resulting in reactivation of a cell's apoptotic pathway.
(§3) The peptides were labeled with the fluorescent tags FITC or TAMRA and Kd values were determined by fluorescence polarization assay. […] The peptide sequence was derivatized with biotin to provide […]-(ε-biotin)-OH 1:2 TFA as the substrate for the TR-FRET assay.
The XIAP protein sequence was obtained from the SWISS-PROT protein sequence database and the BIR2 and BIR3 domains were derived from that. The sequence of the BIR2 domain used for the TR-FRET assay is […].
Time-resolved fluorescence resonance energy transfer (TR-FRET) signals were measured 1 hour later at room temperature. Test compound potency was assessed at 10 serially diluted concentrations. Percentage of inhibition at each concentration was determined to generate an IC50 value for each test compound.

BIR3 domain of XIAP = biological target: T2, BIR3 domain of XIAP (Homo sapiens, UniProt P98170); assay: TR-FRET assay for BIR3 (inhibition of binding of XIAP BIR3 domain to SMAC-derived Peptide A); settings: 6x Histidine-tagged BIR3 domain (amino acids 241-356 of XIAP) 10 nM, Peptide A 20 nM
T2 construct: BIR3 domain, corresponding to amino acids 241-356 of XIAP
T2 sequence (P98170 with tags, fused parts or gaps): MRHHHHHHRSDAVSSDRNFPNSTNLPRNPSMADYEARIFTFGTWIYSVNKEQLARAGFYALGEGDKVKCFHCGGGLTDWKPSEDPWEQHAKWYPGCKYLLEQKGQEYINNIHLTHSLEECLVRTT
Experimental: as §1, §2, §3
The sequence of the BIR3 domain used for the TR-FRET assay is […]
Ten nanomolar of 6× Histidine-tagged BIR2 domain, corresponding to amino acids 124-240 of XIAP, or BIR3 domain, corresponding to amino acids 241-356 of XIAP, was mixed with 20 nM of the peptide […]-(z-biotin)-OH 1:2 TFA, in the presence of 50 mM Tris-Cl, pH 7.5, 100 mM NaCl, 1 mM dithiothreitol (DTT) and 0.1 mg/mL bovine serum albumin (BSA). Following a […] incubation at 37° C., Europium-Streptavidin and Allophycocyanin conjugated anti-Histidine antibody were added to a final concentration of 1.5 nM and 15 nM, respectively. Time-resolved fluorescence resonance energy transfer (TR-FRET) signals were measured 1 hour later at room temperature. Test compound potency was assessed at 10 serially diluted concentrations. Percentage of inhibition at each concentration was determined to generate an IC50 value for each test compound.

IC50 (BIR2 domain of XIAP) | IC50 (BIR3 domain of XIAP) | SMILES
1.04 µM | > 54.8 µM | CCNC(=O)C1Cc2cccnc2N1C(=O)[C@@H](NC(=O)[C@H](C)NC)C(C)C (mixture of isomers) [Example 1, (R,S)-1-[(S)-3-Methyl-2-((S)-2-methylamino-propionylamino)-butyryl]-2,3-dihydro-1H-pyrrolo[2,3-b]pyridine-2-carboxylic acid ethylamide]
3.88 µM | > 54.8 µM | CN[C@@H](C)C(=O)N[C@H](C(=O)N1CC(C)(C)c2cccnc21)C(C)C [Example 2, (S)—N—[(S)-1-(3,3-Dimethyl-2,3-dihydro-pyrrolo[2,3-b]pyridine-1-carbonyl)-2-methyl-propyl]-2-methylamino-propionamide]
4.03 µM | > 54.8 µM | CC[C@H](NC)C(=O)N[C@H](C(=O)N1CC(C)(C)c2cccnc21)C(C)C [Example 3, (S)—N—[(S)-1-(3,3-Dimethyl-2,3-dihydro-pyrrolo[2,3-b]pyridine-1-carbonyl)-2-methyl-propyl]-2-methylamino-butyramide]
2.12 µM | > 54.8 µM | CCNC(=O)C1Cc2cccnc2N1C(=O)[C@@H](NC(=O)[C@H](C)NC)C1CCCCC1 (stereo partly drawn) [Example 4, (R,S)-1-[(S)-2-Cyclohexyl-2-((S)-2-methylamino-propionylamino)-acetyl]-2,3-dihydro-1H-pyrrolo[2,3-b]pyridine-2-carboxylic acid ethylamide]
1.86 µM | > 54.8 µM | CCNC(=O)C1Cc2cccnc2N1C(=O)[C@@H](NC(=O)[C@H](CC)NC)C1CCCCC1 (stereo partly drawn) [Example 5, (R,S)-1-[(S)-2-Cyclohexyl-2-((S)-2-methylamino-butyrylamino)-acetyl]-2,3-dihydro-1H-pyrrolo[2,3-b]pyridine-2-carboxylic acid ethylamide]
1.28 µM | > 54.8 µM | CCNC(=O)C1Cc2cccnc2N1C(=O)[C@@H](NC(=O)[C@H](C)NC)[C@@H](C)CC (stereo partly drawn) [Example 6, (R,S)-1-[(2S,3S)-3-Methyl-2-((S)-2-methylamino-propionylamino)-pentanoyl]-2,3-dihydro-1H-pyrrolo[2,3-b]pyridine-2-carboxylic acid ethylamide]
1.03 µM | > 54.8 µM | CCNC(=O)C1Cc2cccnc2N1C(=O)[C@@H](NC(=O)[C@H](CC)NC)[C@@H](C)CC (stereo partly drawn) [Example 7, (R,S)-1-[(2S,3S)-3-Methyl-2-((S)-2-methylamino-butyrylamino)-pentanoyl]-2,3-dihydro-1H-pyrrolo[2,3-b]pyridine-2-carboxylic acid ethylamide]
0.501 µM | > 54.8 µM | CN[C@@H](C)C(=O)N[C@H](C(=O)N1c2ncccc2CC1C(N)=O)C(C)C (stereo partly drawn) [Example 8, (R,S)-1-[(S)-3-Methyl-2-((S)-2-methylamino-propionylamino)-butyryl]-2,3-dihydro-1H-pyrrolo[2,3-b]pyridine-2-carboxylic acid amide]
12.7 µM | > 54.8 µM | CN[C@@H](C)C(=O)N[C@H](C(=O)N1c2ncccc2C[C@@H]1C(=O)Nc1ccccc1OC)C(C)C [Example 9, (R)-1-[(S)-3-Methyl-2-((S)-2-methylamino-propionylamino)-butyryl]-2,3-dihydro-1H-pyrrolo[2,3-b]pyridine-2-carboxylic acid (2-methoxy-phenyl)-amide]
0.0841 µM | 25.9 µM | CN[C@@H](C)C(=O)N[C@H](C(=O)N1c2ncccc2C[C@H]1C(=O)Nc1ccccc1OC)C(C)C [Example 10, (S)-1-[(S)-3-Methyl-2-((S)-2-methylamino-propionylamino)-butyryl]-2,3-dihydro-1H-pyrrolo[2,3-b]pyridine-2-carboxylic acid (2-methoxy-phenyl)-amide]
0.0635 µM | > 54.8 µM | CN[C@@H](C)C(=O)N[C@H](C(=O)N1c2ncccc2C[C@H]1C(=O)Nc1ccccc1)C(C)C [Example 11, (S)-1-[(S)-3-Methyl-2-((S)-2-methylamino-propionylamino)-butyryl]-2,3-dihydro-1H-pyrrolo[2,3-b]pyridine-2-carboxylic acid phenylamide]
> 54.8 µM | > 54.8 µM | CN[C@@H](C)C(=O)N[C@H](C(=O)N1c2ncccc2C[C@@H]1C(=O)Nc1ccccc1)C(C)C [Example 12, (R)-1-[(S)-3-Methyl-2-((S)-2-methylamino-propionylamino)-butyryl]-2,3-dihydro-1H-pyrrolo[2,3-b]pyridine-2-carboxylic acid phenylamide]
> 54.8 µM | > 54.8 µM | CN[C@@H](C)C(=O)N[C@H](C(=O)N1c2ncccc2C[C@@H]1C(=O)Nc1ccccc1C)C(C)C [Example 13, (R)-1-[(S)-3-Methyl-2-((S)-2-methylamino-propionylamino)-butyryl]-2,3-dihydro-1H-pyrrolo[2,3-b]pyridine-2-carboxylic acid o-tolylamide]
0.0335 µM | > 54.8 µM | CN[C@@H](C)C(=O)N[C@H](C(=O)N1c2ncccc2C[C@H]1C(=O)Nc1ccccc1C)C(C)C [Example 14, (S)-1-[(S)-3-Methyl-2-((S)-2-methylamino-propionylamino)-butyryl]-2,3-dihydro-1H-pyrrolo[2,3-b]pyridine-2-carboxylic acid o-tolylamide]
1.8 µM | 45.9 µM | CN[C@@H](C)C(=O)N[C@H](C(=O)N1c2ncccc2C[C@@H]1C(=O)NCc1ccccc1)C(C)C [Example 15, (R)-1-[(S)-3-Methyl-2-((S)-2-methylamino-propionylamino)-butyryl]-2,3-dihydro-1H-pyrrolo[2,3-b]pyridine-2-carboxylic acid benzylamide]
0.159 µM | 3.95 µM | CN[C@@H](C)C(=O)N[C@H](C(=O)N1c2ncccc2C[C@H]1C(=O)NCc1ccccc1)C(C)C [Example 16, (S)-1-[(S)-3-Methyl-2-((S)-2-methylamino-propionylamino)-butyryl]-2,3-dihydro-1H-pyrrolo[2,3-b]pyridine-2-carboxylic acid benzylamide]
0.392 µM | 24.3 µM | CN[C@@H](C)C(=O)N[C@H](C(=O)N1c2ncccc2C[C@H]1C(=O)NCc1cc(Cl)ccc1C)C(C)C [Example 17, (S)-1-[(S)-3-Methyl-2-((S)-2-methylamino-propionylamino)-butyryl]-2,3-dihydro-1H-pyrrolo[2,3-b]pyridine-2-carboxylic acid 5-chloro-2-methyl-benzylamide]
0.108 µM | 37.6 µM | CN[C@@H](C)C(=O)N[C@H](C(=O)N1c2ncccc2C[C@H]1C(=O)Nc1ccccc1-c1ccccc1)C(C)C [Example 18, (S)-1-[(S)-3-Methyl-2-((S)-2-methylamino-propionylamino)-butyryl]-2,3-dihydro-1H-pyrrolo[2,3-b]pyridine-2-carboxylic acid biphenyl-2-ylamide]
0.0545 µM | 35.1 µM | CN[C@@H](C)C(=O)N[C@H](C(=O)N1c2ncccc2C[C@H]1C(=O)Nc1cccc2ccccc12)C(C)C [Example 19, (S)-1-[(S)-3-Methyl-2-((S)-2-methylamino-propionylamino)-butyryl]-2,3-dihydro-1H-pyrrolo[2,3-b]pyridine-2-carboxylic acid naphthalen-1-ylamide]
1.36 µM | > 54.8 µM | CN[C@@H](C)C(=O)N[C@H](C(=O)N1c2ncccc2C[C@@H]1C(=O)Nc1cnccc1C)C(C)C [Example 20, (R)-1-[(S)-3-Methyl-2-((S)-2-methylamino-propionylamino)-butyryl]-2,3-dihydro-1H-pyrrolo[2,3-b]pyridine-2-carboxylic acid (4-methyl-pyridin-3-yl)-amide]
0.275 µM | > 54.8 µM | CN[C@@H](C)C(=O)N[C@H](C(=O)N1c2ncccc2C[C@H]1C(=O)Nc1ccc(F)cc1)C(C)C [Example 21, (S)-1-[(S)-3-Methyl-2-((S)-2-methylamino-propionylamino)-butyryl]-2,3-dihydro-1H-pyrrolo[2,3-b]pyridine-2-carboxylic acid (4-fluoro-phenyl)-amide]
0.103 µM | > 54.8 µM | CN[C@@H](C)C(=O)N[C@H](C(=O)N1c2ncccc2C[C@H]1C(=O)Nc1ccc(F)cc1C)C(C)C [Example 22, (S)-1-[(S)-3-Methyl-2-((S)-2-methylamino-propionylamino)-butyryl]-2,3-dihydro-1H-pyrrolo[2,3-b]pyridine-2-carboxylic acid (4-fluoro-2-methyl-phenyl)-amide]
